Assay [1] has as its target T1, Human Indoleamine 2,3-dioxygenase (IDO) (Homo sapiens, UniProt P14902).
T1 construct: His tag (N); made in house; host or cells: E. coli
Briefly: Human IDO enzymatic assay (kynurenine level). The format is biochemical. As to conditions: 6 nM IDO, 10 μM L-Trp; geometric mean; read-out: IDO1 GMean: IC50 (μM) (Biochemical Assay). Put shortly: (§1)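 IDO conditions: 6 nM His-IDO, 10 μM L-Trp, 5 μM methylene blue, 20 min, RT. TDO conditions: 1 nM His-TDO, 350 μM L-Trp, 0.4 μM methylene blue, 70 min, RT. Both used pH 6.5 phosphate plus ascorbate/catalase, TCA stop at 50° C, kynurenine readout, nonlinear-regression IC50.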

Assay [2] has as its target T2, Human Tryptophan 2,3-dioxygenase (TDO) (Homo sapiens, UniProt P48775).
T2 construct: His tag (N); made in house; host or cells: E. coli
As to the kind of experiment: Human TDO enzymatic assay (kynurenine level). The class given is biochemical. Particulars: 1 nM TDO, 350 μM L-Trp; geometric mean; read-out: TDO GMean: IC50 (μM) (Biochemical Assay). Put shortly:
as §1

In assay [3] the target is T3, human IDO (IDO1-expressing HEK293 cells) (Homo sapiens, UniProt P14902).
T3 construct: expressed in transfected cells
T3 sequence (P14902 whole entry): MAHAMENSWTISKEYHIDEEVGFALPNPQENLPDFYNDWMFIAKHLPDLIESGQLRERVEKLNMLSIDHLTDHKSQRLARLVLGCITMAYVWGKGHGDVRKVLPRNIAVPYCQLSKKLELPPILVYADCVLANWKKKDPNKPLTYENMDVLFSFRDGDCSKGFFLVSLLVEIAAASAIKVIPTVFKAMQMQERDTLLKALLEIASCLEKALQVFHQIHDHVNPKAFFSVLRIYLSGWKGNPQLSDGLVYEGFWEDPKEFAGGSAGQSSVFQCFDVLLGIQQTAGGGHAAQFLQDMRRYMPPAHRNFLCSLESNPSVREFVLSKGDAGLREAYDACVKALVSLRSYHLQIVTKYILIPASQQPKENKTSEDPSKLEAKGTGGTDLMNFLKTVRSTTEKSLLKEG
Briefly: Cell based kynurenine assay, IDO1-expressing HEK293 cell clones. Particulars: IDO1-expressing HEK293 cells, 24 hours incubation; geometric mean; read-out: HEK293 IDO1 Kynurenine GMean IC50 (μM) (Cellular Assay). Here is the method: (§2) Determine Inhibitor Activity Against IDO or TDO in Cell Based Kynurenine Assay
(§3) IDO1-expressing or TDO-expressing HEK293 cell clones are generated upon stable transfection of plasmids expressing human IDO or human TDO under the control of CMV promoter. Cells are selected in DMEM media supplemented with 10% fetal bovine serum and 1 mg/ml G418 at 37° C. in a humidified incubator supplied with 5% CO2. The assays are performed as follows.
(§4) Cells were seeded in a 96 well plate in 50 μL of culture media at a density of 2.5×10^4 per well. Serial dilutions of compounds (in total volume of 50 μL culture media) are added into cells. 4 wells containing 0.2% DMSO treated cells serve as high controls and 4 wells containing media only with 0.2% DMSO serve as low controls. After 24 hours of incubation, the supernatant was transferred to a 384 well reaction plate and the kynurenine level determined. The percentage inhibition at individual concentrations relative to high and low controls is calculated. The data is analyzed by using nonlinear regression to generate IC50 values.

Assay [4] deals with T4, human TDO (TDO-expressing HEK293 cells) (Homo sapiens, UniProt P48775).
T4 construct: expressed in transfected cells
T4 sequence (P48775 whole entry): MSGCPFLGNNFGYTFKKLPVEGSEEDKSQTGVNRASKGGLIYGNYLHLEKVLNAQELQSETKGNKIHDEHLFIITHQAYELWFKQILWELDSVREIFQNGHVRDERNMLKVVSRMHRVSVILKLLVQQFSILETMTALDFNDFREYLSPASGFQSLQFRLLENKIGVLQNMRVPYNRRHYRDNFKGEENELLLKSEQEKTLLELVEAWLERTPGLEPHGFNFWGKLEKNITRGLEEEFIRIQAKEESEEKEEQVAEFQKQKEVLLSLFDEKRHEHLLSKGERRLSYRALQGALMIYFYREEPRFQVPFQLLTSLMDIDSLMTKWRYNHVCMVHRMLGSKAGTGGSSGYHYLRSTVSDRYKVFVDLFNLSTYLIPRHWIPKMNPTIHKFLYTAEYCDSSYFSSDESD
Briefly: Cell based kynurenine assay, TDO-expressing HEK293 cell clones. As to conditions: TDO-expressing HEK293 cells, 24 hours incubation; geometric mean; read-out: HEK293 TDO Kynurenine GMean IC50 (μM) (Cellular Assay). Here is the method: as §2, §3, §4

Where only a bound is given, the exact number is not on record here.

T2 sequence (P48775 whole entry): as above
T1 sequence (P14902 whole entry): as the sequence (P14902 whole entry) above

Take `OC1(c2cc(Cl)cc3cn[nH]c23)CC2(COC2)C1` [Compound P-0039, 6-(5-chloro-1H-indazol-7-yl)-2-oxaspiro[3.3]heptan-6-ol]: the IC50 in assay [1], in assay [2], in assay [3] and in assay [4] was 0.0001 to 10 µM each time.
As for `OC1(c2cc(Cl)cc3cn[nH]c23)CC2(CSC2)C1` [Compound P-0040, 6-(5-chloro-1H-indazol-7-yl)-2-thiaspiro[3.3]heptan-6-ol], the IC50 in assay [1], in assay [2], in assay [3] and in assay [4] was 0.0001 to 10 µM in each case.
With `CC1(C(O)c2cc(F)cc3cn[nH]c23)CCCCC1` (centres unmarked) [Compound P-0041, (5-fluoro-1H-indazol-7-yl)(1-methylcyclohexyl)methanol], the IC50 in assay [1], in assay [2], in assay [3] and in assay [4] was 0.0001 to 10 µM each time.
As to `OC(c1cc(F)cc2cn[nH]c12)C1CCCCC1` (centres unmarked) [Compound P-0042, cyclohexyl(5-fluoro-1H-indazol-7-yl)methanol], the IC50 in assay [1], in assay [2], in assay [3] and in assay [4] was 0.0001 to 10 µM throughout.
Take `OC(c1cc(F)cc2cn[nH]c12)C12CC3CC(CC(C3)C1)C2` (centres unmarked) [Compound P-0043, adamantan-1-yl(5-fluoro-1H-indazol-7-yl)methanol]: the IC50 in assay [1] is 0.0001 to 10 µM; in assay [2], 0.0001 to 10 µM; in assay [3], 0.0001 to 10 µM; in assay [4] it was greater than 10 µM.
For `O=S(=O)(NC1CC(O)(c2cc(Cl)cc3cn[nH]c23)C1)c1ccccc1` (centres unmarked) [Compound P-0044, N-(3-(5-chloro-1H-indazol-7-yl)-3-hydroxycyclobutyl)benzenesulfonamide], the IC50 is 100 to 200 µM in assay [1], 10 to 100 µM in assay [2], greater than 10 µM in assay [3] and greater than 10 µM in assay [4].
As to `O=S(=O)(NC1CC(O)(c2cc(Cl)cc3cn[nH]c23)C1)C1CC1` (centres unmarked) [Compound P-0045, N-(3-(5-chloro-1H-indazol-7-yl)-3-hydroxycyclobutyl)cyclopropanesulfonamide], the IC50 in assay [1] is 10 to 100 µM; in assay [2], 0.0001 to 10 µM; in assay [3], greater than 10 µM; in assay [4] it was 0.0001 to 10 µM.
With `CC1(C)CC(O)(c2cc(Cl)cc3cn[nH]c23)CCN1S(C)(=O)=O` (centres unmarked) [Compound P-0046, 4-(5-chloro-1H-indazol-7-yl)-2,2-dimethyl-1-(methylsulfonyl)piperidin-4-ol], the IC50 in assay [1] is 0.0001 to 10 µM; in assay [2] it was 0.0001 to 10 µM; in assay [3], greater than 10 µM; in assay [4], greater than 10 µM.
Turning to `O=S1(=O)CCC(O)(c2cc(Cl)cc3cn[nH]c23)CC1` [Compound P-0047, 4-(5-chloro-1H-indazol-7-yl)-4-hydroxytetrahydro-2H-thiopyran 1,1-dioxide], the IC50 in assay [1] was 0.0001 to 10 µM; in assay [2] it was 0.0001 to 10 µM; in assay [3], greater than 10 µM; in assay [4], 0.0001 to 10 µM.
In the case of `OC1(c2cc(Cl)cc3cn[nH]c23)CC2(CCCC2)C1` [Compound P-0048, 2-(5-chloro-1H-indazol-7-yl)spiro[3.4]octan-2-ol], the IC50 in assay [1], in assay [2], in assay [3] and in assay [4] was 0.0001 to 10 µM throughout.
With `Cc1ccc2cn[nH]c2c1C(O)C1(C(F)(F)F)CCCC1` (centres unmarked) [Compound P-0049, (6-methyl-1H-indazol-7-yl)(1-(trifluoromethyl)cyclopentyl)methanol], the IC50 in assay [1], in assay [2], in assay [3] and in assay [4] was 0.0001 to 10 µM in each case.
Turning to `CC1(C(O)c2cc3c(c4cn[nH]c24)CCCC3)CCCCC1` (centres unmarked) [Compound P-0050, (1-methylcyclohexyl)(6,7,8,9-tetrahydro-3H-benzo[e]indazol-4-yl)methanol], the IC50 is 0.0001 to 10 µM in assay [1], 0.0001 to 10 µM in assay [2], 0.0001 to 10 µM in assay [3] and greater than 10 µM in assay [4].
As for `OC1(c2cc(Cl)cc3cn[nH]c23)CC2(CCCCC2)C1` [Compound P-0051, 2-(5-chloro-1H-indazol-7-yl)spiro[3.5]nonan-2-ol], the IC50 in assay [1], in assay [2], in assay [3] and in assay [4] was 0.0001 to 10 µM throughout.
Turning to `CC1(C(O)c2c(F)c(Cl)cc3cn[nH]c23)CCCCC1` (centres unmarked) [Compound P-0052, (5-chloro-6-fluoro-1H-indazol-7-yl)(1-methylcyclohexyl)methanol], the IC50 in assay [1], in assay [2], in assay [3] and in assay [4] was 0.0001 to 10 µM throughout.
`OC(c1cc(Cl)cc2cn[nH]c12)C1(C(F)(F)F)CCCC1` (centres unmarked) [Compound P-0053, (5-chloro-1H-indazol-7-yl)(1-(trifluoromethyl)cyclopentyl)methanol]: the IC50 in assay [1], in assay [2], in assay [3] and in assay [4] was 0.0001 to 10 µM each time.
Consider `CC1(C(O)c2c3c(cc4cn[nH]c24)CC3)CCCCC1` (centres unmarked) [Compound P-0054, (5,6-dihydro-1H-cyclobuta[f]indazol-7-yl)(1-methylcyclohexyl)methanol], for which the IC50 in assay [1] is 0.0001 to 10 µM; in assay [2], 0.0001 to 10 µM; in assay [3], 0.0001 to 10 µM; in assay [4] it was greater than 10 µM.
On to `CC1(C(O)c2cc(Cl)c(F)c3cn[nH]c23)CCCCC1` (centres unmarked) [Compound P-0055, (5-chloro-4-fluoro-1H-indazol-7-yl)(1-methylcyclohexyl)methanol], for which the IC50 in assay [1], in assay [2], in assay [3] and in assay [4] was 0.0001 to 10 µM throughout.
As for `OC(c1cccc2cncn12)C1CCCC1` (centres unmarked) [Compound P-0058, cyclopentyl(imidazo[1,5-a]pyridin-5-yl)methanol], the IC50 in assay [1] was 0.0001 to 10 µM; in assay [2] it was 0.0001 to 10 µM; in assay [3] it was 0.0001 to 10 µM; in assay [4] it was greater than 10 µM.
As to `OC(c1cccc2cncn12)C1CC2CCC1C2` (centres unmarked) [Compound P-0059, bicyclo[2.2.1]heptan-2-yl(imidazo[1,5-a]pyridin-5-yl)methanol], the IC50 in assay [1] is 0.0001 to 10 µM; in assay [2], 0.0001 to 10 µM; in assay [3], 0.0001 to 10 µM; in assay [4] it was greater than 10 µM.
Regarding `OC(c1cccc2cncn12)C1CCCCC1` (centres unmarked) [Compound P-0060, cyclohexyl(imidazo[1,5-a]pyridin-5-yl)methanol], the IC50 in assay [1] was 0.0001 to 10 µM; in assay [2], 0.0001 to 10 µM; in assay [3] it was 0.0001 to 10 µM; in assay [4], greater than 10 µM.
For `CC1(C(O)c2cccc3cncn23)CCCCC1` (centres unmarked) [Compound P-0061, imidazo[1,5-a]pyridin-5-yl(1-methylcyclohexyl)methanol], the IC50 was 0.0001 to 10 µM in assay [1], 0.0001 to 10 µM in assay [2], 0.0001 to 10 µM in assay [3] and greater than 10 µM in assay [4].
Regarding `OC(c1cccc2cncn12)C1(F)CCC(F)(F)CC1` (centres unmarked) [Compound P-0062, imidazo[1,5-a]pyridin-5-yl(1,4,4-trifluorocyclohexyl)methanol], the IC50 was 0.0001 to 10 µM in assay [1], 0.0001 to 10 µM in assay [2], greater than 10 µM in assay [3] and greater than 10 µM in assay [4].
For the compound `OC(c1cccc2cncn12)C1CCCCCCC1` (centres unmarked) [Compound P-0063], the IC50 in assay [1] was 0.0001 to 10 µM; in assay [2], 0.0001 to 10 µM; in assay [3] it was greater than 10 µM; in assay [4] it was greater than 10 µM.
Take `OC(CCc1ccccc1)c1cccc2cncn12` (centres unmarked) [Compound P-0074, 1-(imidazo[1,5-a]pyridin-5-yl)-3-phenylpropan-1-ol]: the half-inhibitory concentration (IC50) in assay [1] is 0.0001 to 10 µM; in assay [2], 10 to 100 µM; in assay [3], greater than 10 µM; in assay [4], greater than 10 µM.
As to `CC(C)(C)OC(=O)N1CCC(C(O)c2cccc3cncn23)CC1` (centres unmarked) [Compound P-0076, tert-butyl 4-(hydroxy(imidazo[1,5-a]pyridin-5-yl)methyl)piperidine-1-carboxylate], the IC50 in assay [1] was 10 to 100 µM; in assay [2] it was 0.0001 to 10 µM; in assay [3] it was greater than 10 µM; in assay [4], greater than 10 µM.
`OC(CC1CCCCC1)c1cccc2cncn12` (stereo not drawn) [Compound P-0079, 2-cyclohexyl-1-(imidazo[1,5-a]pyridin-5-yl)ethan-l-ol]: the IC50 in assay [1] was 0.0001 to 10 µM; in assay [2], 0.0001 to 10 µM; in assay [3], 0.0001 to 10 µM; in assay [4], greater than 10 µM.
